According to US5760092A, “Allocolchinones and uses thereof” (Brandeis University, priority 1996, dated 1998):
Several values for one entry are separate records, joined by “and”; a condition that tells them apart may be missing. Equal entries are not always repeated. Where two headings read alike, the source gives them in different places.

Columns and labels:
[1] = system: MCF7/ADR-RES breast cancer cells; test: cells; format: cell-based
tubulin [2] = format: biochemical, calf
tubulin [3] = test: Binding to tubulin
[4] = system: HOP-62 non-small cell lung cancer cells
[5] = system: OVCAR-3 ovarian cancer cells
[6] = system: OVCAR-8 ovarian cancer cells
[7] = system: SK-OV-3 ovarian cancer cells; details: log10 conc -6.0; 1 µM
A498 renal cancer cells [8] = details: log10 conc -6.0; 1 µM
[9] = system: CAKI-1 renal cancer cells
[10] = system: HS 578T breast cancer cells
[11] = system: HOP-92 non-small cell lung cancer cells; test: cells; details: Homo sapiens
SF-295 CNS cancer cells = test: cells; details: Homo sapiens
[12] = system: OVCAR-3 ovarian cancer cells; test: cells; details: Homo sapiens
[13] = system: SK-OV-3 ovarian cancer cells; test: cells; details: Homo sapiens
A498 renal cancer cells [14] = test: cells; details: Homo sapiens
[15] = system: CAKI-1 renal cancer cells; test: cells; details: Homo sapiens
[16] = system: RXF-393 renal cancer cells; test: cells; details: Homo sapiens
[17] = system: HS 578T breast cancer cells; test: cells; details: Homo sapiens

COc1cc2c(c(OC)c1OC)-c1ccc(C(C)=O)cc1C(NC(C)=O)CC2 (centres unmarked)
GI50 [1]: 23 nM | GI50 ([1]; Homo sapiens, MCF7): 21.1 nM | activity at 100 µM ([1]; Homo sapiens, MCF7, read-out: Percent Growth, log10 conc -4.0): -1% | activity at 10 µM ([1]; Homo sapiens, MCF7, read-out: Percent Growth, log10 conc -5.0): -1% | activity at 1 µM ([1]; Homo sapiens, MCF7, read-out: Percent Growth, log10 conc -6.0): 37% | activity at 0.01 µM ([1]; Homo sapiens, MCF7, read-out: Percent Growth, log10 conc -8.0): 56% | activity at 0.001 µM ([1]; Homo sapiens, MCF7, read-out: Percent Growth, log10 conc -9.0): 73% | activity at 0.0001 µM ([1]; Homo sapiens, MCF7, read-out: Percent Growth, log10 conc -10.0): 91% | activity relative to colchicine (inhibition of microtubule assembly) (tubulin [2]; drug to tubulin molar concentration ratio of about 0.030): about 20% | inhibition of microtubule formation compared with colchicine (tubulin [2]; in vitro): more active than colchicine | IC50 (tubulin [2]; in vitro, read-out: LC50 (inhibition of microtubule assembly in vitro)): 300 nM | plateau turbidity (tubulin [2]; increasing amounts of drug, tubulin 2.1×10^-5 M): decrease in plateau turbidity | binding to tubulin (tubulin [3]): reversible | Percent Growth (MOLT-4 leukemia cells; log10 conc -4.0, 100 µM): -5% | Percent Growth (MOLT-4 leukemia cells; log10 conc -5.0): 5% | Percent Growth (MOLT-4 leukemia cells; log10 conc -6.0, 1 µM): 5% | Percent Growth (MOLT-4 leukemia cells; log10 conc -8.0): 34% | Percent Growth (MOLT-4 leukemia cells; log10 conc -9.0, 0.001 µM): 32% | Percent Growth (MOLT-4 leukemia cells; log10 conc -10.0, 0.0001 µM): 106% | GI50 [4]: < 10 nM | Percent Growth ([4]; log10 conc -6.0, 1 µM): 31% | Percent Growth ([4]; log10 conc -7.0, 0.1 µM): 29% | Percent Growth ([4]; log10 conc -8.0, 0.01 µM): 45% | Percent Growth (SF-268 CNS cancer cells; log10 conc -4.0, 100 µM): 32% | Percent Growth (SF-268 CNS cancer cells; log10 conc -5.0): 37% | Percent Growth (SF-268 CNS cancer cells; log10 conc -6.0, 1 µM): 36% and 38% | Percent Growth (SF-268 CNS cancer cells; log10 conc -7.0, 0.1 µM): 35% and 45% | Percent Growth (SF-268 CNS cancer cells; log10 conc -9.0, 0.001 µM): 40% | Percent Growth (SF-268 CNS cancer cells; log10 conc -10.0, 0.0001 µM): 92% | Percent Growth (SF-539 CNS cancer cells; log10 conc -4.0, 100 µM): -27% | Percent Growth (SF-539 CNS cancer cells; log10 conc -5.0): -31% | Percent Growth (SF-539 CNS cancer cells; log10 conc -6.0, 1 µM): -24% | Percent Growth (SF-539 CNS cancer cells; log10 conc -7.0, 0.1 µM): -24% | Percent Growth (SF-539 CNS cancer cells; log10 conc -8.0): -16% | Percent Growth (SF-539 CNS cancer cells; log10 conc -9.0, 0.001 µM): 19% | Percent Growth (SF-539 CNS cancer cells; log10 conc -10.0, 0.0001 µM): 100% | Percent Growth (SNB-19 CNS cancer cells; log10 conc -4.0, 100 µM): 6% | Percent Growth (SNB-19 CNS cancer cells; log10 conc -5.0): 7% | Percent Growth (SNB-19 CNS cancer cells; log10 conc -6.0, 1 µM): 36% | Percent Growth (SNB-19 CNS cancer cells; log10 conc -8.0, 0.01 µM): 25% and 16% | Percent Growth (SNB-19 CNS cancer cells; log10 conc -9.0, 0.001 µM): 63% | Percent Growth (SNB-19 CNS cancer cells; log10 conc -10.0, 0.0001 µM): 99% | Percent Growth (SNB-75 CNS cancer cells; log10 conc -4.0, 100 µM): 39% | Percent Growth (SNB-75 CNS cancer cells; log10 conc -5.0): 43% | Percent Growth (SNB-75 CNS cancer cells; log10 conc -6.0, 1 µM): 52% and 43% | Percent Growth (SNB-75 CNS cancer cells; log10 conc -7.0, 0.1 µM): 46% and 50% | Percent Growth (SNB-75 CNS cancer cells; log10 conc -8.0, 0.01 µM): 41% and 44% | Percent Growth (SNB-75 CNS cancer cells; log10 conc -9.0, 0.001 µM): 17% | Percent Growth (SNB-75 CNS cancer cells; log10 conc -10.0, 0.0001 µM): 96% | Percent Growth (U251 CNS cancer cells; log10 conc -4.0, 100 µM): 4% | Percent Growth (U251 CNS cancer cells; log10 conc -5.0): 3% | Percent Growth (U251 CNS cancer cells; log10 conc -9.0, 0.001 µM): 23% | Percent Growth (U251 CNS cancer cells; log10 conc -10.0, 0.0001 µM): 96% | TGI [5]: > 100000 nM | Percent Growth ([5]; log10 conc -6.0, 1 µM): 7% | Percent Growth ([5]; log10 conc -7.0, 0.1 µM): 15% | Percent Growth ([5]; log10 conc -8.0): 23% | Percent Growth ([6]; log10 conc -4.0, 100 µM): -45% | Percent Growth ([6]; log10 conc -5.0): -29% | Percent Growth ([6]; log10 conc -6.0, 1 µM): 9% | Percent Growth ([6]; log10 conc -9.0, 0.001 µM): 25% | Percent Growth ([6]; log10 conc -10.0, 0.0001 µM): 96% | Percent Growth [7]: 10% | Percent Growth (A498 renal cancer cells [8]): 25% | TGI [9]: > 100000 nM | Percent Growth ([10]; log10 conc -6.0, 1 µM): 25% | Percent Growth ([10]; log10 conc -8.0, 0.01 µM): 24% | GI50 ([11]; HOP-92): 0.618 nM | activity at 100 µM ([11]; HOP-92, read-out: Percent Growth, log10 conc -4.0): 57% | activity at 10 µM ([11]; HOP-92, read-out: Percent Growth, log10 conc -5.0): 53% | activity at 0.001 µM ([11]; HOP-92, read-out: Percent Growth, log10 conc -9.0): 36% | activity at 0.0001 µM ([11]; HOP-92, read-out: Percent Growth, log10 conc -10.0): 94% | activity at 100 µM (SF-295 CNS cancer cells; SF-295, read-out: Percent Growth, log10 conc -4.0): -14% | activity at 10 µM (SF-295 CNS cancer cells; SF-295, read-out: Percent Growth, log10 conc -5.0): -10% | activity at 0.01 µM (SF-295 CNS cancer cells; SF-295, read-out: Percent Growth, log10 conc -8.0): 6% | activity at 0.001 µM (SF-295 CNS cancer cells; SF-295, read-out: Percent Growth, log10 conc -9.0): 16% | activity at 0.0001 µM (SF-295 CNS cancer cells; SF-295, read-out: Percent Growth, log10 conc -10.0): 104% | activity at 100 µM ([12]; OVCAR-3, read-out: Percent Growth, log10 conc -4.0): 5% | activity at 10 µM ([12]; OVCAR-3, read-out: Percent Growth, log10 conc -5.0): 5% | activity at 0.001 µM ([12]; OVCAR-3, read-out: Percent Growth, log10 conc -9.0): -11% | activity at 0.0001 µM ([12]; OVCAR-3, read-out: Percent Growth, log10 conc -10.0): 97% | activity at 100 µM ([13]; SK-OV-3, read-out: Percent Growth, log10 conc -4.0): 9% | activity at 10 µM ([13]; SK-OV-3, read-out: Percent Growth, log10 conc -5.0): 15% | activity at 1 µM ([13]; SK-OV-3, read-out: Percent Growth, log10 conc -6.0): 14% | activity at 0.1 µM ([13]; SK-OV-3, read-out: Percent Growth, log10 conc -7.0): 19% | activity at 0.01 µM ([13]; SK-OV-3, read-out: Percent Growth, log10 conc -8.0): 12% | activity at 0.001 µM ([13]; SK-OV-3, read-out: Percent Growth, log10 conc -9.0): 44% | activity at 0.0001 µM ([13]; SK-OV-3, read-out: Percent Growth, log10 conc -10.0): 95% | activity at 100 µM (A498 renal cancer cells [14]; A498, read-out: Percent Growth, log10 conc -4.0): 1% | activity at 10 µM (A498 renal cancer cells [14]; A498, read-out: Percent Growth, log10 conc -5.0): 3% | activity at 0.001 µM (A498 renal cancer cells [14]; A498, read-out: Percent Growth, log10 conc -9.0): 72% | activity at 0.0001 µM (A498 renal cancer cells [14]; A498, read-out: Percent Growth, log10 conc -10.0): 77% | GI50 ([15]; CAKI-1): 40.1 nM | activity at 100 µM ([15]; CAKI-1, read-out: Percent Growth, log10 conc -4.0): 37% | activity at 10 µM ([15]; CAKI-1, read-out: Percent Growth, log10 conc -5.0): 39% | activity at 1 µM ([15]; CAKI-1, read-out: Percent Growth, log10 conc -6.0): 36% | activity at 0.1 µM ([15]; CAKI-1, read-out: Percent Growth, log10 conc -7.0): 35% | activity at 0.01 µM ([15]; CAKI-1, read-out: Percent Growth, log10 conc -8.0): 73% | CC50 ([16]; RXF 393, read-out: LC50): > 1000 nM | activity at 1 µM ([16]; RXF 393, read-out: Percent Growth, log10 conc -6.0): 61% | activity at 0.1 µM ([16]; RXF 393, read-out: Percent Growth, log10 conc -7.0): 55% | activity at 0.01 µM ([16]; RXF 393, read-out: Percent Growth, log10 conc -8.0): 35% | activity at 0.001 µM ([16]; RXF 393, read-out: Percent Growth, log10 conc -9.0): 42% | activity at 0.0001 µM ([16]; RXF 393, read-out: Percent Growth, log10 conc -10.0): 101% | activity at 100 µM ([17]; read-out: Percent Growth, log10 conc -4.0): 16% | activity at 10 µM ([17]; read-out: Percent Growth, log10 conc -5.0): 27% | activity at 0.1 µM ([17]; read-out: Percent Growth, log10 conc -7.0): 38% | activity at 0.01 µM ([17]; read-out: Percent Growth, log10 conc -8.0): 39% | activity at 0.001 µM ([17]; read-out: Percent Growth, log10 conc -9.0): 27% | activity at 0.0001 µM ([17]; read-out: Percent Growth, log10 conc -10.0): 103%
